Experimental findings from patent US8119681B2, “2-[1-phenyl-5-hydroxy or methoxy-4alpha-methyl-hexahydrocyclopenta [ƒ]indazole-5-YL]ethyl phenyl derivatives as glucocorticoid receptor ligands” (Merck Sharp & Dohme Corp., priority 2006, dated 2012) are described below.

SMILES strings stand for the structures.

One assay addresses T1, human GR (Homo sapiens, UniProt P04150).
T1 sequence (P04150 1-777): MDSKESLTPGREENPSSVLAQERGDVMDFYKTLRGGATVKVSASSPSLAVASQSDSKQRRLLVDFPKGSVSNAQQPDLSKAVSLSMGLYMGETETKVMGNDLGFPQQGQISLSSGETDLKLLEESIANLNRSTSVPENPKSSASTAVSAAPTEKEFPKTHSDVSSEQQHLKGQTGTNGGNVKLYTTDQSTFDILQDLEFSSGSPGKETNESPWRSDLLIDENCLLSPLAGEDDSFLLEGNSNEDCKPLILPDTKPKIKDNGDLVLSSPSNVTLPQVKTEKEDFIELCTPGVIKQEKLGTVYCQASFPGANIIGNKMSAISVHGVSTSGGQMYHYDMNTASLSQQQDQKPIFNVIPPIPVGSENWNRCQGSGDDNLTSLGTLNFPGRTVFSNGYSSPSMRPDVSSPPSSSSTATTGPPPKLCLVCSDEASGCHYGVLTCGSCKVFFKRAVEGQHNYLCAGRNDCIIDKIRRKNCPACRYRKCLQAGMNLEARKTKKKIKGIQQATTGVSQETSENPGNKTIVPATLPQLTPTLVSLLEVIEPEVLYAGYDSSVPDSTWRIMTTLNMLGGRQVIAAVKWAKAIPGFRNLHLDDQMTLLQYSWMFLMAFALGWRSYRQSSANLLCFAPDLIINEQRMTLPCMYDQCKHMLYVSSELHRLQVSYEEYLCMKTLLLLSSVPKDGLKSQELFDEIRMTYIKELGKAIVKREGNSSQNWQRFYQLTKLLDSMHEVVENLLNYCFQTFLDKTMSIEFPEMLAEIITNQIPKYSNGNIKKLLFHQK
As to the kind of experiment: Transrepression Assay (GITAR), TNFα-β-lactamase reporter gene in U937 cells. Format: cell-based. On the set-up: U937 cells contain an endogenous glucocorticoid receptor (GR); endogenous in cells; host or cells: U937 cells stably transfected with the TNF-α promoter/β-lactamase reporter only. The settings on record: U-937, read-out: maximal activity in the transrepression assay. The method, boiled down:
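Reporter readout used CCF2-AM loading for 70–90 min at room temperature after overnight (~18 h, 37 °C) PMA (5 ng/ml final) and LPS (100 ng/ml final) stimulation of compound-treated (30–45 min) TNFα-β-lactamase U937 cells expressing native GR. Activity was normalised to 100 nM dexamethasone repression.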
For the molecule `CC(C)NC(=O)Oc1ccccc1CC[C@]1(O)CCC2=Cc3c(cnn3-c3ccc(F)cc3)C[C@@]21C` [Example 136, 2-{2-[(4αS,5R)-1-(4-fluorophenyl)-5-hydroxy-4α-methyl-1,4,4α,5,6,7-hexahydrocyclopenta[f]indazol-5-yl]ethyl}phenyl isopropylcarbamate], the Emax was 5 to 100%. In the case of `C[C@]12Cc3cnn(-c4ccc(F)cc4)c3C=C1CC[C@@]2(O)CCc1ccccc1CO` [Example 149, (4αS,5R)-1-(4-fluorophenyl)-5-{2-[2-(hydroxymethyl)phenyl]ethyl}-4α-methyl-1,4,4α,5,6,7-hexahydrocyclopenta[f]indazol-5-ol], the Emax is 5 to 100%.

Still in this assay, the particulars now being: U-937; 100 nM dexamethasone = 100% activity; read-out: maximal activity in the transrepression assay.
On to `CC(C)NC(=O)Nc1ccccc1CC[C@]1(O)CCC2=Cc3c(cnn3-c3ccc(F)cc3)C[C@@]21C` [Example 129, N-(2-{2-[(4αS,5R)-1-(4-fluorophenyl)-5-hydroxy-4α-methyl-1,4,4α,5,6,7-hexahydrocyclopenta[f]indazol-5-yl]ethyl}phenyl)-N′-isopropylurea], for which the Emax lay in the range of 5 to 100%. On the same count and under the same terms, the same measure for `CC(C)NC(=O)Nc1c(F)cccc1CC[C@]1(O)CCC2=Cc3c(cnn3-c3ccc(F)cc3)C[C@@]21C` [Example 130, N-(2-fluoro-6-{2-[(4αS,5R)-1-(4-fluorophenyl)-5-hydroxy-4α-methyl-1,4,4α,5,6,7-hexahydrocyclopenta[f]indazol-5-yl]ethyl}phenyl)-N′-isopropylurea]: 5 to 100%; for `CCNC(=O)Nc1ccc(F)cc1CC[C@]1(O)CCC2=Cc3c(cnn3-c3ccc(F)cc3)C[C@@]21C` [Example 131, N-ethyl-N′-(4-fluoro-2-{2-[(4αS,5R)-1-(4-fluorophenyl)-5-hydroxy-4α-methyl-1,4,4α,5,6,7-hexahydrocyclopenta[f]indazol-5-yl]ethyl}phenyl)urea]: 5 to 100%. In the case of `CCNC(=O)Nc1c(F)cccc1CC[C@]1(O)CCC2=Cc3c(cnn3-c3ccc(F)cc3)C[C@@]21C` [Example 132, N-ethyl-N′-(2-fluoro-6-{2-[(4αS,5R)-1-(4-fluorophenyl)-5-hydroxy-4α-methyl-1,4,4α,5,6,7-hexahydrocyclopenta[f]indazol-5-yl]ethyl}phenyl)urea], the Emax fell in the range of 5 to 100%. `CC(C)NC(=O)Nc1ccc(F)cc1CC[C@]1(O)CCC2=Cc3c(cnn3-c3ccc(F)cc3)C[C@@]21C` [Example 133, N-(4-fluoro-2-{2-[(4αS,5R)-1-(4-fluorophenyl)-5-hydroxy-4α-methyl-1,4,4α,5,6,7-hexahydrocyclopenta[f]indazol-5-yl]ethyl}phenyl)-N′-isopropylurea]: the Emax was in the range of 5 to 100%.

For the molecule `COC(=O)Oc1ccccc1CC[C@]1(O)CCC2=Cc3c(cnn3-c3ccc(F)cc3)C[C@@]21C` [Example 135, 2-{2-[(4αS,5R)-1-(4-fluorophenyl)-5-hydroxy-4α-methyl-1,4,4α,5,6,7-hexahydrocyclopenta[f]indazol-5-yl]ethyl}phenyl methyl carbonate], the Emax was in the range of 5 to 100%. Turning to `CCNS(=O)(=O)c1ccccc1CC[C@]1(O)CCC2=Cc3c(cnn3-c3ccc(F)cc3)C[C@@]21C` [Example 137, N-ethyl-2-{2-[(4αS,5R)-1-(4-fluorophenyl)-5-hydroxy-4α-methyl-1,4,4α,5,6,7-hexahydrocyclopenta[f]indazol-5-yl]ethyl}benzenesulfonamide], the Emax was in the range of 5 to 100%.

For the molecule `CNS(=O)(=O)c1ccccc1CC[C@]1(O)CCC2=Cc3c(cnn3-c3ccc(F)cc3)C[C@@]21C` [Example 139, 2-{2-[(4αS,5R)-1-(4-fluorophenyl)-5-hydroxy-4α-methyl-1,4,4α,5,6,7-hexahydrocyclopenta[f]indazol-5-yl]ethyl}-N-methylbenzenesulfonamide], the Emax fell in the range of 5 to 100%.

For the molecule `C[C@]12Cc3cnn(-c4cccc(F)c4)c3C=C1CC[C@@]2(O)CCc1ccccc1S(N)(=O)=O` [Example 140, 2-{2-[(4αS,5R)-1-(3-fluorophenyl)-5-hydroxy-4α-methyl-1,4,4α,5,6,7-hexahydrocyclopenta[f]indazol-5-yl]ethyl}benzenesulfonamide], the Emax fell in the range of 5 to 100%.

On to `C[C@]12Cc3cnn(-c4ccccc4)c3C=C1CC[C@@]2(O)CCc1ccccc1S(N)(=O)=O` [Example 141, 2-{2-[(4αS,5R)-5-hydroxy-4α-methyl-1-phenyl-1,4,4α,5,6,7-hexahydrocyclopenta[f]indazol-5-yl]ethyl}benzenesulfonamide], for which the Emax is 5 to 100%.

For the molecule `C[C@]12Cc3cnn(-c4ccc(F)c(F)c4)c3C=C1CC[C@@]2(O)CCc1ccccc1S(N)(=O)=O` [Example 142, 2-{2-[(4αS,5R)-1-(3,4-difluorophenyl)-5-hydroxy-4α-methyl-1,4,4α,5,6,7-hexahydrocyclopenta[f]indazol-5-yl]ethyl}benzenesulfonamide], the Emax was 5 to 100%. As to `C[C@]12Cc3cnn(-c4ccc(F)cc4)c3C=C1CC[C@@]2(O)CCc1cccc(F)c1C#N` [Example 145, 2-fluoro-6-{2-[(4αS,5R)-1-(4-fluorophenyl)-5-hydroxy-4α-methyl-1,4,4α,5,6,7-hexahydrocyclopenta[f]indazol-5-yl]ethyl}benzonitrile], the Emax is 5 to 100%. Same read-out and setting: the figure for `C[C@]12Cc3cnn(-c4ccc(F)cc4)c3C=C1CC[C@@]2(O)CCc1cc(F)ccc1C#N` [Example 146, 4-fluoro-2-{2-[(4αS,5R)-1-(4-fluorophenyl)-5-hydroxy-4α-methyl-1,4,4α,5,6,7-hexahydrocyclopenta[f]indazol-5-yl]ethyl}benzonitrile] is 5 to 100%. As to `C[C@]12Cc3cnn(-c4ccc(F)cc4)c3C=C1CC[C@@]2(O)CCc1ccccc1-c1ccc[nH]1` [Example 147, (4αS,5R)-1-(4-fluorophenyl)-4α-methyl-5-{2-[2-(1H-pyrrol-2-yl)phenyl]ethyl}-1,4,4α,5,6,7-hexahydrocyclopenta[f]indazol-5-ol], the Emax fell in the range of 5 to 100%. Turning to `C[C@]12Cc3cnn(-c4ccc(F)cc4)c3C=C1CC[C@@]2(O)CCc1cccc(F)c1CN` [Example 153, (4αS,5R)-5-{2-[2-(aminomethyl)-3-fluorophenyl]ethyl}-1-(4-fluorophenyl)-4α-methyl-1,4,4α,5,6,7-hexahydrocyclopenta[f]indazol-5-ol], the Emax is 5 to 100%. In the case of `C[C@]12Cc3cnn(-c4ccc(F)cc4)c3C=C1CC[C@@]2(O)CCc1cccc(F)c1C=O` [Example 154, 2-fluoro-6-{2-[(4αS,5R)-1-(4-fluorophenyl)-5-hydroxy-4α-methyl-1,4,4α,5,6,7-hexahydrocyclopenta[f]indazol-5-yl]ethyl}benzaldehyde], the Emax was in the range of 5 to 100%.

For `C[C@]12Cc3cnn(-c4ccc(F)cc4)c3C=C1CC[C@@]2(O)CCc1cccc(F)c1C(=O)N1CC(=O)C1` [Example 155, 1-(2-fluoro-6-{2-[(4αS,5R)-1-(4-fluorophenyl)-5-hydroxy-4α-methyl-1,4,4α,5,6,7-hexahydrocyclopenta[f]indazol-5-yl]ethyl}benzoyl)azetidin-3-one], the Emax is 5 to 100%. For the molecule `C[C@]12Cc3cnn(-c4ccc(F)cc4)c3C=C1CC[C@@]2(O)CCc1ccccc1-c1cscn1` [Example 158, (4αS,5R)-1-(4-fluorophenyl)-4α-methyl-5-{2-[2-[1,3-thiazol-4-yl)phenyl]ethyl}-1,4,4α,5,6,7-hexahydrocyclopenta[f]indazol-5-ol], the Emax is 5 to 100%. Take `C[C@]12Cc3cnn(-c4ccc(F)cc4)c3C=C1CC[C@@]2(O)CCc1cc(C(F)(F)F)ccc1C#N` [Example 161, 2-{2-[(4αS,5R)-1-(4-fluorophenyl)-5-hydroxy-4α-methyl-1,4,4α,5,6,7-hexahydrocyclopenta[f]indazol-5-yl]ethyl}-4-(trifluoromethyl)benzonitrile]: the Emax is 5 to 100%.

Consider `Cc1ccc(C#N)c(CC[C@]2(O)CCC3=Cc4c(cnn4-c4ccc(F)cc4)C[C@@]32C)c1` [Example 162, 2-{2-[(4αS,5R)-1-(4-fluorophenyl)-5-hydroxy-4α-methyl-1,4,4α,5,6,7-hexahydrocyclopenta[f]indazol-5-yl]ethyl}-4-methylbenzonitrile], for which the Emax was in the range of 5 to 100%. As for `C[C@]12Cc3cnn(-c4ccc(F)cc4)c3C=C1CC[C@@]2(O)CCc1ccc(C(F)(F)F)cc1C#N` [Example 164, 2-{2-[(4αS,5R)-1-(4-fluorophenyl)-5-hydroxy-4α-methyl-1,4,4α,5,6,7-hexahydrocyclopenta[f]indazol-5-yl]ethyl}-5-(trifluoromethyl)benzonitrile], the Emax lay within 5 to 100%.

For `CO[C@@]1(CCc2ccccc2C(N)=O)CCC2=Cc3c(cnn3-c3ccc(F)cc3)C[C@@]21C` [Example 165, 2-{2-[(4αS,5R)-1-(4-fluorophenyl)-5-methoxy-4α-methyl-1,4,4α,5,6,7-hexahydrocyclopenta[f]indazol-5-yl]ethyl}benzamide], the Emax was in the range of 5 to 100%.
